Patent publication US20140093525A1, “COMPOSITIONS AND METHODS OF TREATING OPIOID ADDICTION” (Minneapolis Medical Research Foundation, priority 2012, published 2014)
Like-named read-outs stand apart in the source and are kept apart here. Where a SMILES comes first, the peptide text is derived from it. The star is where a group is joined. X1 = COc1ccc2c3c1OC1C(=NOCC(=O)*)CCC4(O)C(C2)N(C)CCC314

Tests used:
Anti-OXY antibodies = assay: Competitive ELISA of serum from animals immunized with OXY(Gly)4-KLH, OXY(Gly)4-OVA as coating antigen; format: binding, rat
Protocol: Because plateau values differed, IC50 values for each inhibitor were calculated based on the percentage of inhibition of the optical density of primary antibodies incubated with saline.

[1] = system: serum antibodies elicited by M-KLH; assay: Competition ELISA of serum from rats vaccinated with M-KLH
[2] = system: serum antibodies elicited by OXY-KLH; assay: Competition ELISA of serum from rats vaccinated with OXY-KLH
Male Holtzman rats [3] = assay: Example 4: thermal nociception (hot plate) after OXY, naltrexone and OXY-KLH vaccine; format: in vivo, rat
Protocol: Male Holtzman rats immunized once every 3 weeks for a total of 3 injections i.p., with 25 μg immunogen in Freund's adjuvant.
Significant differences existed between saline pretreated control rats and rats receiving NLTX. For pharmacokinetic experiments NLTX dose of 0.003 mg/kg was chosen based on MPE %. *p<0.05.

Male Holtzman rats [4] = assay: Example 4: drug distribution studies (OXY in serum and brain); format: in vivo, rat; conditions: pre-treatment with 0.003 mg/kg NLTX; 2.25 mg/kg OXY s.c.
Protocol: Plasma and brain collected at 33 min after behavioral assessment on the hot plate, and measured using gas chromatography coupled to mass spectrometry.

[5] = relative to OXY, OXY(Gly)4-OVA as ELISA coating antigen

COc1ccc2c3c1O[C@H]1C(=O)CC[C@H]4[C@@H](C2)N(C)CC[C@]314 [Hydrocodone]
Cross-Reactivity (%) (Anti-OXY antibodies): 0.2% | IC50 (Anti-OXY antibodies): 10000 nM | affinity, competition or binding to antibodies (in words) (Anti-OXY antibodies): substantially lower | relative affinity of antiserum / cross-reactivity (in words) [1]: relatively low IC50 values | relative affinity of antiserum / cross-reactivity (in words) [2]: relatively low IC50 values

CCC(=O)C(CC(C)N(C)C)(c1ccccc1)c1ccccc1 (stereo not drawn) [Methadone]
affinity, competition or binding to antibodies (in words) (Anti-OXY antibodies): no measurable binding

CN1CC[C@]23c4c5ccc(O)c4O[C@H]2[C@@H](O)C=C[C@H]3[C@H]1C5 [Morphine]
Cross-Reactivity (%) (Anti-OXY antibodies): 0.1% | affinity, competition or binding to antibodies (in words) (Anti-OXY antibodies): substantially lower

C=CCN1CC[C@]23c4c5ccc(O)c4O[C@H]2C(=O)CC[C@@]3(O)[C@H]1C5 [Naloxone]
affinity, competition or binding to antibodies (in words) (Anti-OXY antibodies; competitive ELISA, serum from OXY(Gly)4-KLH immunized animals): substantially lower | Cross-Reactivity (%) (Anti-OXY antibodies; [5]): 1.2%

O=C1CC[C@@]2(O)[C@H]3Cc4ccc(O)c5c4[C@@]2(CCN3CC2CC2)[C@H]1O5 [Naltrexone]
affinity, competition or binding to antibodies (in words) (Anti-OXY antibodies): substantially lower | IC50 (Anti-OXY antibodies; competitive binding, OXY(Gly)4-OVA as ELISA coating antigen): 5000 nM | Cross-Reactivity (%) (Anti-OXY antibodies; [5]): 0.4% | effect on acute behavioral effects of OXY, thermal nociception (in words) (Male Holtzman rats [3]; NLTX 0.001-0.01 mg/kg s.c. 15 min prior to 2.25 mg/kg OXY): dose-dependently blocks | effect on behavioral tolerance to OXY (in words) (Male Holtzman rats [3]; repeated OXY administration): unable to block the effects of tolerance | effect on distribution of OXY in immunized rats (in words) (Male Holtzman rats [4]): does not alter the distribution of OXY

COc1ccc2c3c1OC1C(=NOCC(=O)NCC(=O)NCC(=O)NCC(=O)NCC(=O)O)CCC4(O)C(C2)N(C)CCC314 (stereo not drawn) [OXY(Gly)4] (X1-GGGG-OH)
Cross-Reactivity (%) (Anti-OXY antibodies): >100% | IC50 (Anti-OXY antibodies): 3 nM | affinity, competition or binding to antibodies (in words) (Anti-OXY antibodies): high affinities

COc1ccc2c3c1O[C@H]1C(=O)CC[C@@]4(O)[C@@H](C2)N(C)CC[C@]314 [OXY, Oxycodone]
Cross-Reactivity (%) (Anti-OXY antibodies): 100% | IC50 (Anti-OXY antibodies): 17 nM | affinity, competition or binding to antibodies (in words) (Anti-OXY antibodies): high affinities

CN1CC[C@]23c4c5ccc(O)c4O[C@H]2C(=O)CC[C@@]3(O)[C@H]1C5 [Oxymorphone]
Cross-Reactivity (%) (Anti-OXY antibodies): 63% | IC50 (Anti-OXY antibodies): 30 nM | relative affinity of antiserum / cross-reactivity (in words) [2]: high relative affinities

CC(=O)Oc1ccc2c3c1O[C@H]1[C@@H](OC(C)=O)C=C[C@H]4[C@@H](C2)N(C)CC[C@@]341 [heroin]
relative affinity of antiserum / cross-reactivity (in words) [1]: high relative affinities | relative affinity of antiserum / cross-reactivity (in words) [2]: low relative affinity

tetraglycine [(Gly)4]
affinity, competition or binding to antibodies (in words) (Anti-OXY antibodies): no measurable competition or binding | relative affinity of antiserum / cross-reactivity (in words) [1]: negligible | relative affinity of antiserum / cross-reactivity (in words) [2]: negligible cross-reactivity
